Measured values as given in a compilation of properties of binary mixtures (doi:10.1021/je400097b).

Experiment: xn = mol fraction of the nth substance listed
Conditions: 101 kPa

O + CC[NH+](C)CC.O=S(=O)([O-])C(F)(F)F
Conditions	viscosity [mPa·s]
293.15 K, x1 = 1	1.2

CC[NH+](C)CC.O=S(=O)([O-])C(F)(F)F + O
viscosity [mPa·s]
Conditions	x2 = 0.037	x2 = 0.434	x2 = 0.586	x2 = 0.759	x2 = 0.844	x2 = 0.925	x2 = 0.972
293.15 K	53.3	22.3	14.5	–	4.99	2.86	1.69
313.15 K	–	12.1	7.98	4.38	2.89	1.75	1.2
333.15 K	14.6	–	4.97	–	–	1.28	1.01
353.15 K	9.18	–	3.38	–	1.45	1.08	0.91
